Molecular target: ATP-binding cassette sub-family C member 8 (Homo sapiens, UniProt Q09428)
Experiment: Binding Activity of the Compounds of the Present Disclosure for SUR1 Receptor
Experimental: The plate was incubated at 4° C. for 1 h.f) The […]-96 GF/C and […]-96 GF/B plates were washed twice with Universal Harvester, each time with 50 mL of washing solution.g) The SUR1 receptor reaction system was transferred to a […]-96 GF/B plate with Universal Harvester, and 900 μL of washing solution was added to each well to wash the GF/B plate 4 times. The washed […]-96 GF/B plate was dried in an oven at 55° C. for 10 min.h) 40 μL of ULTIMA GOLD scintillation solution was added to each well, and the plate was read using Microbeta.

Chain of ATP-binding cassette sub-family C member 8 (Q09428 whole entry): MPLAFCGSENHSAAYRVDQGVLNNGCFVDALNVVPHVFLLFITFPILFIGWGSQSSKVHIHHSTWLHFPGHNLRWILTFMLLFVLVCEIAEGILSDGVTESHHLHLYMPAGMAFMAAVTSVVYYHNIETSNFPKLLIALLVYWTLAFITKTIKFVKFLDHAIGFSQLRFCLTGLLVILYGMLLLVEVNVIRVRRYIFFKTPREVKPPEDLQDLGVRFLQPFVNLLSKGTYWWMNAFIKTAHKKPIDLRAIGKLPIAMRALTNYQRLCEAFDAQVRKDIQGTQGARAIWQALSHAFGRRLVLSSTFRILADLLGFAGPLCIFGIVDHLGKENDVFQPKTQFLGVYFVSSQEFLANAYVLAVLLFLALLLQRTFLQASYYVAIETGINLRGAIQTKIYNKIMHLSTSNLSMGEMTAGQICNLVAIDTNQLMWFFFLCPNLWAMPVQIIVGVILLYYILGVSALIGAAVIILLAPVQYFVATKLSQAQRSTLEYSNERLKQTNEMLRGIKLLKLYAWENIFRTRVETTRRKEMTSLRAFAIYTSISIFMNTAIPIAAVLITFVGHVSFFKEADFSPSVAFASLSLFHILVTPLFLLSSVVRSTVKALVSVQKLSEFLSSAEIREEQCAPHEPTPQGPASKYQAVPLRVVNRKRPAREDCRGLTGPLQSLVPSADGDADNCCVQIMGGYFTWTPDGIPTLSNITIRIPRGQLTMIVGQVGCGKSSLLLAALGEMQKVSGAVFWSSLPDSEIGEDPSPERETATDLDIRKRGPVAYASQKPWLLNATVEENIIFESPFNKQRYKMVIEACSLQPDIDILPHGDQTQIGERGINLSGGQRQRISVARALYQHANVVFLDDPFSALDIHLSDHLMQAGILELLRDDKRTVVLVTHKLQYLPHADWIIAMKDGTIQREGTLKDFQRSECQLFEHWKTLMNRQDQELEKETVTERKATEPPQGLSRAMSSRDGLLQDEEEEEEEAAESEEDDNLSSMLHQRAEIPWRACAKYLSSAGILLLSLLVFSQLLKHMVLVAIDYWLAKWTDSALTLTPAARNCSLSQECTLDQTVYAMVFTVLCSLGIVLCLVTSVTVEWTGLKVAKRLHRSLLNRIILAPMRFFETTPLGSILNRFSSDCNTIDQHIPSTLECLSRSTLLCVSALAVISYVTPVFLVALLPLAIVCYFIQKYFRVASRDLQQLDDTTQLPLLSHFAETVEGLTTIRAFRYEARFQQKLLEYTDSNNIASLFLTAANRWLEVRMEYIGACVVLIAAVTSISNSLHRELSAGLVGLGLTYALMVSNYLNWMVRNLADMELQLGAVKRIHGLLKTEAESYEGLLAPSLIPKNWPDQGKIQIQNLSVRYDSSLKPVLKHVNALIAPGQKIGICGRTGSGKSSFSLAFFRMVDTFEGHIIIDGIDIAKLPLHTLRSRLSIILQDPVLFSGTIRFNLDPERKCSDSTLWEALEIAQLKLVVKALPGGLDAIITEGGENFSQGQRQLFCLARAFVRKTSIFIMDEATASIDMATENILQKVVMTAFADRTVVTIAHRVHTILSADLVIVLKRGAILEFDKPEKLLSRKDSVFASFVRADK

- IC50: 8 nM
SMILES: COc1ccc(Cl)cc1C(=O)NCCc1ccc(S(=O)(=O)NC(=O)N[C@H]2CC[C@H](O)CC2)cc1 [US20230348371, Compound 4]

Source: BindingDB's records for patent US20230348371 (Shanghai Senhui Medicine, 2023)
